Converted amounts (≈) assume the structure as drawn. “Also recorded” adds a separate entry of the source.
Columns and labels:
[1] = system: Erythroid cell lines (K562, UT-7); assay: In vitro studies in erythroid cell lines vs. HU; type: cell-based
From the text: The effects of Compound 1 is compared with HU in in vitro studies in erythroid cell lines (K562 and UT-7).

[2] = Clinical safety and tolerability; type: in vivo, human
Description: In some embodiments, Compound 1, or a pharmaceutically acceptable salt, solvate, or hydrate thereof is administered to a patient, wherein Compound 1, or a pharmaceutically acceptable salt, solvate, or hydrate thereof, is administered once a day with food. […] The incidence and severity of the side effects, such as nausea, emesis and headache, can be reduced when Compound 1, or a pharmaceutically acceptable salt, solvate, or hydrate thereof, is taken with food.
Therefore, Population A is designed to explore the PD dose response in patients as well as the tolerability of the 200 mg dose level in sickle cell patients who have tolerated the 100 mg dose well.

[3] = system: In-vivo SCD: vaso occlusion; assay: In-vivo SCD: vaso occlusion (WBC)
[4] = system: Townes mouse model; assay: Plasma sE-Sel in the Townes mouse model; type: in vivo; conditions: Townes mice treated with Compound 1
Description: Endothelial E-selectin (E-Sel) slows leukocyte rolling, which is followed by stationary adhesion and transmigration of activated leukocytes. Plasma levels of sE-Sel, produced by the enzymatic cleavage of the extracellular domains of E-Sel, are increased in SCD patients and this may be mediated by its interaction with leukocytes. In the Townes mouse model, plasma sE-Sel is increased 144% ([…]) over levels seen in control mice ([…]).

[5] = Solubility in water; type: physicochemical
Description: Per taste testing results, bitterness could be detected for all these samples. […] At this level of solubility, masking the taste of Compound 1 in an oral solution is challenging. Even high level of sucralose was evaluated and taste of the oral solution remained bitter. […] Furthermore, strawberry flavor was chosen, because patients like its sweet taste and it has a good solubility in water. Orange juice or lime juice may be used to dilute the oral solution and to mask the bitter taste before administration.

[6] = system: SCD models; assay: Circulating levels of PMNs in SCD models; type: in vivo, murine
From the text: Recently several drugs targeting white cell binding to endothelial cells, have been advancing in clinical studies in patients. Compound 1 is able to increase expression of fetal hemoglobin in patient derived cells and murine models of SCD and reduce vessel occlusion in SCD murine models. In this Example, the ability of Compound 1 to reduce the adhesive properties of neutrophils from SCD patients and reduce sE-Selectin (sE-Sel) and markers of PMN activation in murine SCD models was studied. […] This appears to be accompanied by a Compound 1-mediated reduction in disease specific cell activation including 67% lower levels of myeloid derived myeloperoxidase (MPO) and 26% lower levels of neutrophil derived arginase in the lung (FIG. 1). […] This was quantified by real time monitoring of the green florescent patches in the microchannel, as neutrophils are labeled by a specific Alexa Fluor® 488-conjugated antibody before the perfusion step. […] Under these conditions, adhesion was reduced an average of 54% (p=0.03) (FIG. 2). Mechanistically, not willing to be bound by any theory, Compound 1 may target the stationary adhesion step of neutrophils as it lowered expression levels of key neutrophil integrins including CD11a [reduced 23% (p=0.002)], CD11b [reduced 39% (ns)) and CD18 [reduced 47% (p=0.03)) (FIG. 3).

[7] = system: SCD patient neutrophils; assay: In vitro adhesion assay mimicking blood flow (microchannels lined with activated HMEC-1); type: cell-based, human
From the text: (§1) This appears to be accompanied by a Compound 1-mediated reduction in disease specific cell activation including 67% lower levels of myeloid derived myeloperoxidase (MPO) and 26% lower levels of neutrophil derived arginase in the lung (FIG. 1). […] This was quantified by real time monitoring of the green florescent patches in the microchannel, as neutrophils are labeled by a specific Alexa Fluor® 488-conjugated antibody before the perfusion step. […] Under these conditions, adhesion was reduced an average of 54% (p=0.03) (FIG. 2). Mechanistically, not willing to be bound by any theory, Compound 1 may target the stationary adhesion step of neutrophils as it lowered expression levels of key neutrophil integrins including CD11a [reduced 23% (p=0.002)], CD11b [reduced 39% (ns)) and CD18 [reduced 47% (p=0.03)) (FIG. 3).

[8] = Nonclinical data on concomitant administration of HU with Compound 1; type: in vivo
Description: Results from Population B are intended to provide information on Compound 1 when administered concomitantly with HU, both of which increase HbF levels through alternative biochemical pathways that increase intracellular cGMP. Because there are no clinical data to support administration of Compound 1 concomitantly with HU, patients in Population B initiate Compound 1 dosing at the low dose (30 mg or 50 mg) used in Population A and only escalate to the 100 mg dose if the 50 mg dose has been safe and tolerated for 4 weeks.

[9] = system: CD11a, CD11b and CD18 integrins on SCD patient neutrophils; assay: Integrin expression on SCD patient neutrophils; type: cell-based, human
From the text: as §1

[10] = system: Townes SCD model; assay: 28 day Townes SCD model, Compound 1 vs. HU (RBC/WBC); type: in vivo, mouse
Description: In one study, Compound 1 and therapeutic doses of HU (25 mg/kg and 50 mg/kg) were tested side-by-side in the 28 day Townes SCD model (oral daily). […] MPO is a monocyte inflammatory marker. Plasma nitrate is improved nitrate levels. Lower levels of plasma nitrate may contribute to hemolysis in SCD patients.

[11] = Stability of Compound 1 in solution as a function of pH; type: physicochemical
From the text: The pH of the solution affects the compound stability and solubility. […] In some embodiments, pharmaceutical composition has a pH from about 3.0 to about 7.0. In some embodiments, the pharmaceutical composition has a pH from about 3.0 to about 6.0, or from about 5.5 to about 6.5. In some embodiments, pH of the pharmaceutical composition is about 5.5, about 5.6, about 5.7, about 5.8, about 5.9, about 6.0, about 6.1, about 6.2, about 6.3, about 6.4, or about 6.5. In some embodiments, pH of the pharmaceutical composition is about 5.5. In some embodiments, pH of the pharmaceutical composition is about 6.0.
There is no obvious excipient that can mask its taste. Another major challenge was to optimize the excipients quantity. […] In some embodiments, a pharmaceutical composition of pH above 5.5 comprising Compound 1 is provided. […] Extensive formulation development and manufacturing process studies were carried out. Other challenges are the excipient compatibility and stability of the API in solution.

[12] = system: SCD patient derived cell lines; assay: Study in SCD patient derived cell lines; type: cell-based, human
[13] = system: C57B1/6J; assay: In-vivo cognition: C57B1/6J
[14] = system: Townes mice; assay: Myeloid and neutrophil inflammatory markers in the lungs of Townes mice; type: in vivo, mouse
From the text: as §1

C[C@@H]1CN(Cc2ncccn2)C[C@H]1c1cn2c(C3CCOCC3)ncc2c(=O)[nH]1 [Compound 1, 6-[(3S,4S)-4-methyl-1-(pyrimidin-2-ylmethyl)pyrrolidin-3-yl]-3-tetrahydropyran-4-yl-7H-imidazo[1,5-a]pyrazin-8-one]
cGMP levels vs. HU [1]: increased cGMP levels compared with HU; also recorded: Increased cGMP levels vs. HU;
induction of HbF (RNA, protein, etc.) [1]: induction of HbF (RNA, protein, etc.)
effect of food on adverse event profile (nausea, emesis, headache) ([2]; once a day with food): dramatically reduce the adverse event profile
safety and tolerability ([2]; once daily doses of 30, 50, 100, and 200 mg, nonclinical and healthy volunteer clinical data): safe and well tolerated
vaso occlusion (WBC) vs. HU [3]: Better results vs. HU; combo
plasma sE-Sel levels ([4]; control mice 57, Townes mice 139): 92 ng/mL
plasma sE-Sel elevation over control mice ([4]; untreated Townes 144%): 61%
solubility [5]: ~1000 mg/mL (≈ 2530 mM)
circulating levels of PMNs [6]: reduced
reduction of neutrophil adhesion to activated HMEC-1 ([7]; 30 min incubation with 30 μM, average, p=0.03, FIG. 2): 54%
adhesion of SCD patient neutrophils to endothelial cells ([7]; added to whole blood samples prior to perfusion): reduced adhesions significantly and in a dose dependent manner; also recorded: reduces adhesion
increase of Compound 1 exposure by concomitant HU [8]: do not suggest
expression of CD11a, CD11b and CD18 integrins ([9]; FIG. 3 legend): reduces expression
CD11b expression reduced ([9]; ns, FIG. 3): 39%
CD11a expression reduced ([9]; p=0.002, FIG. 3): 23%
CD18 expression reduced ([9]; p=0.03, FIG. 3): 47%
key measures of RBC pathology (sickled RBCs; unconjugated bilirubin; % HbF cells; LDH activity) vs. HU ([10]; 28 day, oral daily, Compound 1 30 mg/kg, HU 25 and 50 mg/kg, FIG. 4): outperforms HU in a statistically significant manner
measures of WBC pathology vs. HU ([10]; 28 day, oral daily, Compound 1 30 mg/kg, HU 25 and 50 mg/kg, FIG. 5): outperforms HU in a statistically significant manner
RBC/WBC parameters vs. HU ([10]; Townes): Statistically better results than HU
stability at a lower pH [11]: unstable
F-cells % [12]: F-cells % increase
HbF [12]: increases in HbF
CNS activity [13]: No CNS activity
myeloid and neutrophil inflammatory markers in the lungs ([14]; Townes mice, FIG. 1 legend): reduces
lower levels of myeloid derived myeloperoxidase (MPO) in the lung ([14]; lung, FIG. 1): 67%
lower levels of neutrophil derived arginase in the lung ([14]; lung, FIG. 1): 26%

Source: patent US20220023302A1, “PDE9 INHIBITORS FOR TREATING SICKLE CELL DISEASE” (Imara Inc., priority 2019, published 2022)
